Here are results for three compounds from article PMC8230625 (International Journal of Molecular Sciences, 2021).

pEC50, pIC50: −log10 of the molar value. Entries after “also recorded” stand apart in the source; their conditions may differ.

One series can be described thus: in vitro. The note with it: human. The procedure: (§1) The HeLa cervical cancer adherent cell line (ATCC: CCL-2) was applied for the evaluation of individual and combined effects of mycotoxins on cell viability. The cells were cultured in DMEM (high glucose, 4500 mg/L) with 10% FBS, penicillin (100 U/mL), and streptomycin (100 μg/mL) in sterile plastic cell culture flasks (75 cm^2; 5% CO2, 37 °C). The cells were trypsinized and plated onto 96-well sterile plastic plates. Stock solutions (each 5000 μM) of ZEN, ZELs, ZAN, and ZALs used in cell experiments were prepared in 96 v/v% ethanol (spectroscopic grade; VWR, Debrecen, Hungary). Stock solutions of AOH (5000 μM or 40 mM) were prepared in spectroscopic grade dimethyl sulfoxide (DMSO; Fluka, Morris Plains, NJ, USA). Mycotoxin stock solutions were stored at −20 °C.
(§2) HeLa cells were treated with ZEN, α/β-ZEL, ZAN, α/β-ZAL, and AOH (0–250 μM) for 24 h. […] The cell viability was evaluated based on the ATP levels/well employing a previously described method without modifications.
(§3) Combined effects were evaluated based on combination indices (CI) determined using the CompuSyn software (ComboSyn Inc., Paramus, NJ, USA) by the median-effect equation of the mass-action law:(1) logfa/fu=m×log(D)−m×log(Dm), where fa and fu are the affected and unaffected fractions of the system, respectively; D represents the dose, Dm denotes the dose necessary for the production of median effect, while m is the sigmoidicity coefficient (m > 1 sigmoidal, m = 1 hyperbolic, m < 1 flat sigmoidal).
(§4) The combined effects of mycotoxins were determined by the CI values calculated based on the following equation [68]:(2) CI=(D)1/(Dx)1+(D)2/(Dx)2, where (Dx)1 and (Dx)2 are the individual doses necessary for the production of x% effect, while (D)1 and (D)2 are the doses of the two compounds that combined evoke the same effect as (Dx)1 alone or (Dx)2 alone, i.e., the targeted x% effect.

A further series concerns HeLa cells. Briefly: in vitro. The note with it: HeLa; for CI Value (combination index): CompuSyn; for Concentration at (and above) which statistically significant (p < 0.01) decrease in cell viability was noticed: 24 h incubation, single compound; for pIC50: Homo sapiens, read-out: Dm (IC50), viability of HeLa cells (ATP/well). The procedure: as §1, §2, §3, §4
Series [1] has as its target T1, hERα (Saccharomyces cerevisiae BLYES strain) (Homo sapiens, UniProt P03372).
T1 construct: expressed in transfected cells; host or cells: Saccharomyces cerevisiae BLYES strain (hERα gene integrated in the chromosome)
Kind of series: cell-based. Type of series: cell-based. The note with it: for CI Value (combination index) / Combined Estrogenic Effect / Combined Estrogenic Effect (grade symbol): + 6.28 × 10^−2 µM ZEN; for Combined estrogenic effect in Figure 5B: + 62.8 ×10^-3 μM ZEN.
From the text: The Saccharomyces cerevisiae BLYES strain was applied to examine the estrogenic activity of the compounds tested. This bioluminescent yeast bioreporter harbors the hERα gene on its chromosome, and it has two plasmids with genes responsible for bioluminescence. The pUTK404 plasmid contains luxC, -D, and -E genes from Photorhabdus luminescens and flavin oxidoreductase gene (frp) from Vibrio harveyi. The pUTK407 plasmid contains tandem estrogen responsive elements (EREs) that initiate the transcription of luxA and luxB genes after binding the dimer formed by estrogen receptor—ligand complexes.
S. cerevisiae BLYES strain was grown in 30 mL of yeast growth medium (YMM leu-, ura-) for 18–20 h at 30 °C.
Stock solutions of the compounds tested were prepared in methanol and stored at −20 °C. Estrogen assays were carried out on 96-well (PS, F-bottom) microplates (Greiner Bio-One Hungary Ltd., Mosonmagyaróvár, Hungary). In single compound tests, stock solutions of the compounds were serially diluted with methanol; whereas, in co-exposure experiments, a 20-µL mixture of the solutions was placed into the wells of the microplates. After the evaporation of methanol, yeast culture (200 µL; OD600 of 1.000 ± 0.050) were pipetted into each well. E2 was applied as a positive control, while wells containing only yeast cells and yeast cells with methanol served as negative and solvent controls, respectively. Bioluminescence (cps, counts per second) was measured after 5-h incubation (30 °C) with a VictorX Multilabel Plate Reader (Perkin Elmer Inc., Waltham, MA, USA).
as §3, §4
Zero percent was defined in each measurement as the mean of the methanol control values, and 100% was defined as the mean of all plateau values of single compounds’ concentration—response curves.

A further series has as its system hERα. The arrangement: method as in PMID 16194592. The note with it: cited from earlier work.
Another series relates to hERβ. Set-up: method as in PMID 16194592. As to conditions: cited from earlier work.
In a further series the test system is Ishikawa cells. The arrangement: method as in PMID 16194592. As to conditions: alkaline phosphatase assay; cited from earlier work.
The next series deals with estrogen receptors. Set-up: method as in PMID 28910742. The note with it: yeast reporters bioassay; cited from earlier work.
Another series concerns androgen receptors. Set-up: method as in PMID 28910742. As to conditions: yeast reporters bioassay; cited from earlier work.
[2] abbreviates: 24 h, 10 µM (lower toxic concentration) of the compound + 20 µM ZEN.
Where [3] appears, read: 24 h, 10 µM of the compound + 20 µM ZEN.
Where [4] appears, read: 24 h, 30 µM (higher toxic concentration) of the compound + 20 µM ZEN.
Where [5] appears, read: 24 h, 30 µM of the compound + 20 µM ZEN.
[6] abbreviates: BLYES, higher estrogenic concentration of the compound (as E22).
Where [7] appears, read: BLYES, lower estrogenic concentration of the compound (as E21).

T1 sequence (P03372 whole entry): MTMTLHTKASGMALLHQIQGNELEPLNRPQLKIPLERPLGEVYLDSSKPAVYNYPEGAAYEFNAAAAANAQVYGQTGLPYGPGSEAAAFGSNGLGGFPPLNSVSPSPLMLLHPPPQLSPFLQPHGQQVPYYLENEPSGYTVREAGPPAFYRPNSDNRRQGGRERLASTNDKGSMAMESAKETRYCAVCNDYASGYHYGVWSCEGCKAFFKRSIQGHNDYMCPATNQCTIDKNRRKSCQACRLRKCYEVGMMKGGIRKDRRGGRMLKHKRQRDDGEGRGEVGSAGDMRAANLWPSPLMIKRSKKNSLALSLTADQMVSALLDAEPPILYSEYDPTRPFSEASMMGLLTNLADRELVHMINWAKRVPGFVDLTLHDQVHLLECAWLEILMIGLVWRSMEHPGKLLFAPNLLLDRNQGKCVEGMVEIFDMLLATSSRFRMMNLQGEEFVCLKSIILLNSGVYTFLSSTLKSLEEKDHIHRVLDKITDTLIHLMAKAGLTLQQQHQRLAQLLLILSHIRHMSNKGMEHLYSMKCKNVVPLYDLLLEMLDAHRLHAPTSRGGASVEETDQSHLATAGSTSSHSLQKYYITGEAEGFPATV

For `Cc1cc(O)cc2oc(=O)c3c(O)cc(O)cc3c12` [AOH, alternariol], the cytotoxicity at 24 h, 10 µM in the series “in vitro” (Decrease in cellular ATP levels (% of control), individual effect, HeLa, 24 h, single compound at 10 μM) amounted to 13.6%. In addition, in the series “in vitro” (Decrease in cellular ATP levels (% of control), individual effect, HeLa, 24 h, single compound at 30 μM), the cytotoxicity at 24 h, 30 µM worked out at 32.4%. In addition, the “Combined cytotoxic effect in Figure 3B” value in the series on HeLa cells (setting [2]) is “Syn and synergism”; in the series on HeLa cells (setting [4]) it was “Syn and synergism”. Further, the “Combined Cytotoxic Effect” value in the series on HeLa cells (setting [3]) and in the series with HeLa cells (setting [5]) was “Synergism (CI < 0.8: synergism)” in each case. For the same compound, the results for the “Combined Cytotoxic Effect (grade symbol)” value with HeLa cells (setting [3]) and with HeLa cells (setting [5]) were “+ (0.60 < CI < 0.80: +)” and “++ (CI < 0.60: ++)”, respectively. Further, the “CI Value (combination index)” value with HeLa cells (setting [3]) worked out at 0.73; in the series with HeLa cells (setting [5]), 0.50. Also, in the series on HeLa cells, the “Concentration at (and above) which statistically significant (p < 0.01) decrease in cell viability was noticed” value stood at 10 µM. For the same compound, the pIC50 in the series with HeLa cells (24 h) was 4.47. Also, the “Effect of subtoxic (non-estrogenic) concentration of the compound on the estrogenic effect of ZEN” value in series [1] (BLYES, co-treatment with ZEN (approx. 20% estrogenicity), α-ZEL 1.56 × 10^−3 µM, ZAN 6.24 × 10^−3 µM, AOH up to 48.4 µM, Figure 5A) is “did not cause any relevant change; also recorded: did not increase the estrogenic effect of ZEN”. The “Estrogenic effect in BLYES assay” value in series [1] (single compound, even at 50 µM) is recorded as “did not induce estrogenic effects; also recorded: did not show estrogenicity”. Further, the “Fold lower affinity toward hERα compared to 17β-estradiol (E2)” value in the series on hERα is given as 10,000 fold. In addition, in the series on hERβ, the “Fold lower affinity toward hERβ compared to 17β-estradiol (E2)” value is listed as 2500 fold. For the same compound, the “Fold weaker estrogenic effects vs. E2” value with Ishikawa cells is 10,000 fold. The “Behaviour at estrogen receptors” value with estrogen receptors was “weak partial agonist”. Also, in the series with androgen receptors, the “Behaviour at androgen receptors” value is reported as “full agonist”.

A word on the pEC50: it is the negative decadic logarithm of the EC50, by convention in mol/L. Regarding `C[C@H]1CCCC(=O)CCC/C=C/c2cc(O)cc(O)c2C(=O)O1` [ZEN, zearalenone], the cytotoxicity at 24 h, 20 µM in the series “in vitro” (Decrease in cellular ATP levels (% of control), individual effect, HeLa, 24 h, single compound at 20 μM) came out at 30.1%. For the same compound, in the series on HeLa cells, the “Concentration at (and above) which statistically significant (p < 0.01) decrease in cell viability was noticed” value is reported as 10 µM. Also, in the series with HeLa cells (24 h), the pIC50 is 4.25. For the same compound, the cytotoxicity with HeLa cells (read-out: Decrease in cellular ATP levels (% of control), individual effect, 24 h, single compound at 20 μM, 20 µM) was around 30%. In addition, the pEC50 in series [1] was 6.34. The “Estrogenic effect (% increase), individual effect” value in series [1] (BLYES, ZEN alone at 62.8 ×10^-3 μM (6.3 × 10^−2 µM)) is recorded as “approximately 20%”. In series [1] (BLYES, single compound), the “Concentration at (and above) which statistically significant (p < 0.01) estrogenic effect was observed” value was determined as 0.031 µM.

For `C[C@H]1CCC[C@@H](O)CCC/C=C/c2cc(O)cc(O)c2C(=O)O1` [β-ZEL, β-zearalenol], the cytotoxicity at 10 µM in “in vitro” is 19.7%. The cytotoxicity at 30 µM in “in vitro” turned out to be 33.1%. Also, the “Combined cytotoxic effect in Figure 3B” value is reported as “Syn” with HeLa cells (setting [2]) and “Add” in the series on HeLa cells (setting [4]). The figures for the “Combined Cytotoxic Effect” value in the series with HeLa cells (setting [3]) and in the series with HeLa cells (setting [5]) were “Synergism (CI < 0.8: synergism)” and “Additive effect (0.8 < CI < 1.2: additive effect)”, respectively. Further, the “Combined Cytotoxic Effect (grade symbol)” value was “+ (0.60 < CI < 0.80: +)” in the series on HeLa cells (setting [3]) and “± (0.80 < CI < 1.20: ±)” in the series on HeLa cells (setting [5]). Besides, the “CI Value (combination index)” value in the series on HeLa cells (setting [3]) came out at 0.64; in the series on HeLa cells (setting [5]), 1.07; in series [1] (BLYES, higher concentration (µM): α-ZEL 1.25 × 10^−2, β-ZEL 2.43, ZAN 4.99 × 10^−2, α-ZAL 2.48 × 10^−2, β-ZAL 2.48 × 10^−1, GEN 1.48), 0.95; in series [1] (BLYES, lower concentration (µM): α-ZEL 6.24 × 10^−3, β-ZEL 1.22, ZAN 2.50 × 10^−2, α-ZAL 1.24 × 10^−2, β-ZAL 1.24 × 10^−1, GEN 7.4 × 10^−1) it was 0.77. The “Effect of the non-toxic (subtoxic) concentration of the compound on ATP levels of ZEN-exposed cells” value in the series on HeLa cells (24 h, co-exposure with toxic concentration of ZEN (20 μM), compared to ZEN-exposed cells, Figure 3A) is on record as “statistically significant (p < 0.01) decreases in ATP levels”. In the series with HeLa cells, the “Concentration at (and above) which statistically significant (p < 0.01) decrease in cell viability was noticed” value is recorded as 10 µM. Also, the pIC50 in the series with HeLa cells (24 h) was 4.40. For the same compound, in series [1], the pEC50 was 5.62. For the same compound, the “Combined Estrogenic Effect” value is recorded as “Additive effect (0.8 < CI < 1.2: additive effect)” in series [1] (setting [6]) and “Synergism (CI < 0.8: synergism)” in series [1] (setting [7]). Moreover, the “Combined Estrogenic Effect (grade symbol)” value is on record as “± (0.80 < CI < 1.20: ±)” in series [1] (setting [6]) and “+ (0.60 < CI < 0.80: +)” in series [1] (setting [7]). In addition, the “Combined estrogenic effect in Figure 5B” value in series [1] (BLYES, higher estrogenic concentration of the compound (as E20)) is “additive effects”; in series [1] (BLYES, lower estrogenic concentration of the compound (as E19)), “synergism”. Further, the “Concentration at (and above) which statistically significant (p < 0.01) estrogenic effect was observed” value in series [1] (BLYES, single compound) is 0.31 µM.
